Measurements from patent US20220340629A1, “Myosin Derived Peptides and Related Compounds with Anticoagulant Activities” (THE SCRIPPS RESEARCH INSTITUTE, priority 0001, published 2022).
Where two headings read alike, the source gives them in different places. Non-standard residues stand in square brackets, D forms with d. Residues, ends and D or L forms follow the SMILES beside them. No end group written: not given here. *: point of attachment. Arachidoyl = CCCCCCCCCCCCCCCCCCCC(=O)*; NMeN = CN[C@@H](CC(N)=O)C(=O)O; Nle = CCCC[C@H](N)C(=O)O

Legend:
[1] = system: skeletal muscle myosin-supported prothrombin activation by factors Xa and Va; test: Assay 1A: prothrombin activation by factor Xa/factor Va/myosin in purified system; format: biochemical, human factors Xa and Va; rabbit skeletal muscle myosin; settings: for inhibition of myosin-supported prothrombin activation: dose-dependent studies, FIG. 4, TFP 0-100 μM, ELC peptides 0-300 μM; for IC50: dose-dependency assays, FIG. 2A, myosin 2 nM, read-out: IC50, inhibition of myosin-supported prothrombin activation; for inhibition of myosin-supported prothrombin activation at 5 μM: peptide 5 μM; for inhibition of myosin-supported prothrombin activation at 5 μM / inhibition of myosin-supported prothrombin activation at 100 μM: FIG. 1A; for inhibition of myosin-supported prothrombin activation at 100 μM: peptide 100 μM
[2] = target: T1, prothrombin activation by factor Xa and factor Va (no myosin) (Homo sapiens, UniProt P00742); test: Assay 1B: prothrombin activation by factor Xa/factor Va, no myosin; format: biochemical; settings: for inhibition of prothrombin activation in the absence of myosin: FIG. 4, peptide 0-300 μM
T1 construct: the same reaction mixture of factor Xa, factor Va and prothrombin
T1 sequence (P00742 41-179 limits assumed): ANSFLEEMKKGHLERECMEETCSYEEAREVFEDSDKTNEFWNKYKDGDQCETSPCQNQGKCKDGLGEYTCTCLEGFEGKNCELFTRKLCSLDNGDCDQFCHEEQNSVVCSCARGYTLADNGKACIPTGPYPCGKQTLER
T1 sequence (P00742 235-488 limits assumed): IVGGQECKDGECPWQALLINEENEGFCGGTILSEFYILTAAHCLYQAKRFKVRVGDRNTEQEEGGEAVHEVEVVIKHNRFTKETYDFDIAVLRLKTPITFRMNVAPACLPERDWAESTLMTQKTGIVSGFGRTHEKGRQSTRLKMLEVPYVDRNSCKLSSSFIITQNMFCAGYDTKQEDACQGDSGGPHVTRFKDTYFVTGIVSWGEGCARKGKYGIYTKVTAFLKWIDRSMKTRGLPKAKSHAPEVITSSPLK

[3] = target: phospholipid-supported prothrombin activation by factors Xa and Va (Homo sapiens, UniProt P00742); test: Assay 1C: phospholipid vesicle (PC/PS 80%/20%)-supported prothrombin activation; format: biochemical
Chain of phospholipid-supported prothrombin activation by factors Xa and Va (P00742 41-179 limits assumed): as the sequence (P00742 41-179 limits assumed) above
Chain of phospholipid-supported prothrombin activation by factors Xa and Va (P00742 235-488 limits assumed): as the sequence (P00742 235-488 limits assumed) above

[4] = target: skeletal muscle myosin-supported prothrombin activation by factors Xa and Va (Homo sapiens, UniProt P00742); test: Assay 1A: prothrombin activation by factor Xa/factor Va/myosin in purified system; format: biochemical, human factors Xa and Va; rabbit skeletal muscle myosin; settings: purified system
Chain of skeletal muscle myosin-supported prothrombin activation by factors Xa and Va (Homo sapiens, UniProt P00742) (P00742 41-179): as the sequence (P00742 41-179 limits assumed) above
Chain of skeletal muscle myosin-supported prothrombin activation by factors Xa and Va (Homo sapiens, UniProt P00742) (P00742 235-488): as the sequence (P00742 235-488 limits assumed) above
Chain of skeletal muscle myosin-supported prothrombin activation by factors Xa and Va (Homo sapiens, UniProt P00742) (P12259 29-737 partner): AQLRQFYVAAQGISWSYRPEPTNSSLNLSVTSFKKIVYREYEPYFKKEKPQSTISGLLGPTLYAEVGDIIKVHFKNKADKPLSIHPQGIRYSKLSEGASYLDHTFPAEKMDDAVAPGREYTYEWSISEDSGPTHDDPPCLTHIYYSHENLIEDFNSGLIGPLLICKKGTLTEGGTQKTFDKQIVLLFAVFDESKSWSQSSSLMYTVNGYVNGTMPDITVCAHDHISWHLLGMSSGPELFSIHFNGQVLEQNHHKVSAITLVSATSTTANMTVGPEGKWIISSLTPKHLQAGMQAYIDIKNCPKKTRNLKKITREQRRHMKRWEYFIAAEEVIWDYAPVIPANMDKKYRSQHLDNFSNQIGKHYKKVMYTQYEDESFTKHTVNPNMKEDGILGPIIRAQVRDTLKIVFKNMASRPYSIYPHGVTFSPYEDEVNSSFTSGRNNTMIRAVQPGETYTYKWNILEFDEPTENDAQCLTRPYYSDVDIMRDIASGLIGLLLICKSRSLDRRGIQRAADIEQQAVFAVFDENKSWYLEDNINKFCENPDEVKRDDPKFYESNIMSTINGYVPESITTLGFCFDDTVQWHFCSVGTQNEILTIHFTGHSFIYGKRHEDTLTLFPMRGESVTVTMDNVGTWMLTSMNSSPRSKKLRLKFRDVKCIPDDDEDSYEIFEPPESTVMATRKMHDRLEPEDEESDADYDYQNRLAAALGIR
Chain of skeletal muscle myosin-supported prothrombin activation by factors Xa and Va (Homo sapiens, UniProt P00742) (P12259 1574-2224 partner): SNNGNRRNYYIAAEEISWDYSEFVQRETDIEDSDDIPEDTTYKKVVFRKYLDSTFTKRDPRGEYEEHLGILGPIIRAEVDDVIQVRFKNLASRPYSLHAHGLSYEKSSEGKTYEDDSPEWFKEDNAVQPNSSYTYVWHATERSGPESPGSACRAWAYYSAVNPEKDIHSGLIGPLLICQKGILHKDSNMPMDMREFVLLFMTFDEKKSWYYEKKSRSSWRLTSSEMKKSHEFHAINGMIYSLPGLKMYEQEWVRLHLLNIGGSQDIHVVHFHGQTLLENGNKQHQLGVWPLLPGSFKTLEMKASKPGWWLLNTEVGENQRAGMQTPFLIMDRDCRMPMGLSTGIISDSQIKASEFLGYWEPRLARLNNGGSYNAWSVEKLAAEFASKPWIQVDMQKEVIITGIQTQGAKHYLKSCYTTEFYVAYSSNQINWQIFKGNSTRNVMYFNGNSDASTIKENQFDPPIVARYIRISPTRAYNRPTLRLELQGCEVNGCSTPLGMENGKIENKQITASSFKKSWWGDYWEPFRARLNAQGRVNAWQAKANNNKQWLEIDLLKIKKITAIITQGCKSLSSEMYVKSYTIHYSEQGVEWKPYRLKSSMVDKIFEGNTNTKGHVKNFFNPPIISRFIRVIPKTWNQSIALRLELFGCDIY

[5] = Metabolite identification after incubation in mouse plasma; format: in vitro ADME; settings: incubated in mouse plasma, FIG. 8
[6] = system: thrombin generation in human platelet poor plasma with skeletal muscle myosin; test: Assay 2A: thrombin generation, recalcification of human platelet poor plasma + myosin; format: biochemical; settings: human platelet poor plasma 30%, myosin 50 nM, CaCl2 10 mmol/L; read-out: 2A (recalcification +myosin)
How it was run: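 Pooled normal human platelet-poor plasma (30%) preincubated 5 min at 37° C with 50 nM skeletal muscle myosin and peptide in DMSO. Coagulation triggered with 10 mmol/L CaCl2 plus fluorogenic Z-Gly-Gly-Arg-AMC; thrombin generation followed 25 min (ex 360/em 460 nm). IC50 = peptide concentration giving 50% inhibition of thrombin generation.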

[7] = system: thrombin generation in human whole blood; test: Assay 4: thrombin generation in recalcified human whole blood; format: biochemical
Procedure: In addition to purified protein system and human plasma, assays using whole blood (Assay 4) were also performed to examine anti-coagulant activities of the peptides and derivative compounds. In these assays, freshly drawn anticoagulated human whole blood (80 μL aliquot) was incubated with peptide in DMSO or DMSO alone (control) for 5 min at 37° C. Then, fluorogenic thrombin substrate solution (Z-Gly-Gly-Arg-AMC) (I-1140) with 10 mmol/L CaCl2 (final) alone was added to the reaction mixture (total 110 μl) in 96 well plate to initiate coagulation. Thrombin generation was followed continuously for 25 min using SPECTRAmax GEMINI XS fluorometer (Molecular Devices, Sunnyvale, Calif.) with excitation and emission wavelengths set at 360 and 460 nm, respectively. The first derivative of fluorescence versus time was used to produce thrombin generation curves with the correction for substrate consumption and inner filter effect. IC50 were determined using a curve fit program in Prism7.0 (GraphPad Software, San Diego, Calif.).

[8] = system: thrombin generation in human plasma; test: Thrombin generation assay in pooled normal human plasma (Examples 3 and 4); format: biochemical; settings: screened at 25 μM, FIG. 3A
Procedure: Thrombin generation assay in pooled human plasma: The effect of synthetic peptides on thrombin generation in pooled normal human plasma (George King Bio-medical, Inc., Overland Park, KS) was tested as described (1,11). Briefly, normal human plasma (30 μl) was mixed with CTI, followed by the addition of peptide. Then, tissue factor (TF) (Innovin) (0.5[…] pM final) containing 30 mM Ca^++ in TBSA with fluorogenic thrombin substrate solution (I-1140) (Bachem Americas, Inc., Torrance, Calif.) were added to the plasma to initiate coagulation activation. The first derivative of the time course data for substrate hydrolysis yielded the thrombin generation curve, allowing measurement of thrombin generation during the initiation, propagation and termination phases of thrombin generation and the value for peak thrombin generated.

Human factor Xa [9] = target: T2, Human factor Xa (human, UniProt P00742 41-179; P00742 235-488, limits assumed); test: cell-based or functional assay
T2 sequence (P00742 41-179 limits assumed, form in doubt, chain 1 of 2): as the sequence (P00742 41-179 limits assumed) above
T2 sequence (P00742 235-488 limits assumed, form in doubt, chain 2 of 2): as the sequence (P00742 235-488 limits assumed) above

Human factor Xa [10] = target: T2, Human factor Xa; test: cell-based or functional assay; remark: listed apart in the source
[11] = PC/PS vesicles 4 μM, read-out: IC50, phospholipid vesicles containing 20% phosphatidylserine-supported prothrombin activation
[12] = skeletal muscle myosin, factor Va 5 nM, factor Xa 0.2 nM, prothrombin 0.75 μM, 10 min, read-out: 1A (+myosin)

YEDFVEGLRVFDKEGN [ELC129-144, Ac-YEDFVEGLRVFDKEGN-NH2]
inhibition of myosin-supported prothrombin activation [1]: inhibited | inhibition of prothrombin activation in the absence of myosin [2]: did not

CC[C@H](C)[C@H](NC(=O)[C@H](CC(C)C)NC(=O)[C@H](CCC(N)=O)NC(=O)[C@H](C)NC(=O)[C@H](CC(C)C)NC(=O)[C@H](CCCCN)NC(=O)[C@H](CC(=O)O)NC(=O)[C@H](CC(=O)O)NC(=O)[C@H](CCCNC(=N)N)NC(=O)[C@H](CCSC)NC(=O)[C@@H](N)CCC(=O)O)C(=O)N[C@H](C(=O)N[C@@H](CCCNC(=N)N)C(=O)N[C@H](C(=O)N[C@@H](CCC(N)=O)C(=O)N[C@@H](C)C(=O)N[C@@H](CCCNC(=N)N)C(=O)N[C@@H](CS)C(=O)N[C@@H](CCCNC(=N)N)C(=O)NCC(=O)N[C@@H](Cc1ccccc1)C(=O)N[C@@H](CC(C)C)C(=O)N[C@@H](C)C(=O)N[C@@H](CCCNC(=N)N)C(=O)N[C@H](C(=O)N[C@@H](CCC(=O)O)C(=O)N[C@@H](Cc1ccc(O)cc1)C(=O)N[C@@H](CCC(N)=O)C(=O)N[C@@H](CCCNC(=N)N)C(=O)N[C@@H](CCSC)C(N)=O)C(C)C)[C@@H](C)O)[C@@H](C)O [HC781-810] (H-EMRDDKLAQLITRTQARCRGFLARVEYQRM-NH2)
IC50 [1]: 64000 nM | inhibition of myosin-supported prothrombin activation at 5 μM [1]: inhibitory, to varying degrees | inhibition of myosin-supported prothrombin activation at 100 μM [1]: inhibited | IC50 [3, 11]: 7500 nM

CC[C@H](C)[C@H](NC(=O)[C@H](C)N)C(=O)N[C@@H](Cc1ccccc1)C(=O)N[C@@H](CS)C(=O)N[C@H](C(=O)N[C@@H](CCC(N)=O)C(=O)N[C@@H](Cc1ccc(O)cc1)C(=O)N[C@@H](CC(N)=O)C(=O)N[C@H](C(=O)N[C@@H](CCCNC(=N)N)C(=O)N[C@@H](CO)C(=O)N[C@@H](Cc1ccccc1)C(=O)N[C@@H](CCSC)C(=O)N[C@@H](CC(N)=O)C(=O)N[C@H](C(=O)N[C@@H](CCCCN)C(=O)N[C@@H](Cc1c[nH]cn1)C(=O)N[C@@H](Cc1c[nH]c2ccccc12)C(=O)N1CCC[C@H]1C(=O)N[C@@H](Cc1c[nH]c2ccccc12)C(=O)N[C@@H](CCSC)C(=O)N[C@@H](CCCCN)C(N)=O)C(C)C)[C@@H](C)CC)[C@@H](C)CC [HC060] (H-AIFCIQYNIRSFMNVKHWPWMK-NH2)
IC50 [4, 12]: 1100 nM | 1C (+phospholipid) ([3]; phospholipid vesicle 4 μM, PS 20%/PC 80%, result in words): No activity | sites of protease cleavage identified from metabolite identification [5]: six

CCCCCCCCCCCCCCCCCCCC(=O)NCCCC[C@H](NC(=O)[C@H](CCCNC(=N)N)NC(=O)[C@@H](NC(=O)[C@H](CC(N)=O)NC(=O)[C@H](Cc1ccc(O)cc1)NC(=O)[C@H](CCC(N)=O)NC(=O)[C@@H](NC(=O)[C@H](CO)NC(=O)[C@H](Cc1ccccc1)NC(=O)[C@@H](NC(=O)[C@H](C)N)[C@@H](C)CC)[C@@H](C)CC)[C@@H](C)CC)C(=O)N[C@@H](Cc1ccccc1)C(=O)N[C@@H](CCCC)C(=O)N(C)[C@@H](CC(N)=O)C(=O)N[C@H](C(=O)N[C@@H](CCCCN)C(=O)N[C@@H](Cc1c[nH]cn1)C(=O)N[C@@H](Cc1c[nH]c2ccccc12)C(=O)N1CCC[C@H]1C(=O)N[C@@H](Cc1c[nH]c2ccccc12)C(=O)N[C@@H](CCCC)C(=O)N[C@@H](CCCCN)C(=O)N[C@@H](CCCCN)C(=O)N[C@@H](CCCCN)C(=O)N[C@@H](CCCCN)C(=O)N[C@@H](CCCCN)C(N)=O)C(C)C [SL-1504-074A, AIFSIQYNIRXF(Nle)(N-MeN)VKHWPW(Nle)KKKKK] (H-AIFSIQYNIRK(Arachidoyl)F[Nle][NMeN]VKHWPW[Nle]KKKKK-NH2)
IC50 [6]: 1700 nM | IC50 ([7]; CaCl2 10 mmol/L, read-out: 4 (recalcification)): 300 to 4000 nM

CC[C@H](C)[C@H](NC(=O)[C@H](C)NC(=O)[C@@H](N)CCC(=O)O)C(=O)N[C@@H](Cc1ccccc1)C(=O)N[C@@H](CS)C(=O)N[C@H](C(=O)N[C@@H](CCC(N)=O)C(=O)N[C@@H](Cc1ccc(O)cc1)C(=O)N[C@@H](CC(N)=O)C(=O)N[C@H](C(=O)N[C@@H](CCCNC(=N)N)C(=O)N[C@@H](CO)C(=O)N[C@@H](Cc1ccccc1)C(=O)N[C@@H](CCSC)C(=O)N[C@@H](CC(N)=O)C(=O)N[C@H](C(=O)N[C@@H](CCCCN)C(=O)N[C@@H](Cc1c[nH]cn1)C(=O)N[C@@H](Cc1c[nH]c2ccccc12)C(=O)N1CCC[C@H]1C(=O)N[C@@H](Cc1c[nH]c2ccccc12)C(=O)N[C@@H](CCSC)C(=O)N[C@@H](CCCCN)C(=O)N[C@@H](CC(C)C)C(=O)N[C@@H](Cc1ccccc1)C(=O)N[C@@H](Cc1ccccc1)C(=O)N[C@@H](CCCCN)C(=O)N[C@H](C(=O)N[C@@H](CCCCN)C(=O)N1CCC[C@H]1C(=O)N[C@@H](CC(C)C)C(=O)N[C@@H](CC(C)C)C(=O)N[C@@H](CCCCN)C(=O)N[C@@H](CO)C(=O)N[C@@H](C)C(=O)N[C@@H](CCC(=O)O)C(=O)N[C@H](C(=O)N[C@@H](CCC(=O)O)C(=O)N[C@@H](CCCCN)C(=O)N[C@@H](CCC(=O)O)C(N)=O)[C@@H](C)O)[C@@H](C)CC)C(C)C)[C@@H](C)CC)[C@@H](C)CC [HC815-854] (H-EAIFCIQYNIRSFMNVKHWPWMKLFFKIKPLLKSAETEKE-NH2)
IC50 ([4]; prothrombin activation with myosin, read-out: 1A (+ myosin) IC50): 1990 nM | IC50 [1]: 2300 nM | inhibition of myosin-supported prothrombin activation at 5 μM [1]: inhibitory, to varying degrees | inhibition of myosin-supported prothrombin activation at 100 μM [1]: inhibited | IC50 ([2]; purified system, no myosin): 10800 nM | IC50 [3, 11]: 104000 nM | IC50 ([3]; purified system, phospholipid vesicles, read-out: 1C (+phospholipid)): 7500 nM | inhibition of thrombin generation in human plasma [8]: significantly inhibited

CCCC[C@H](NC(=O)[C@H](Cc1c[nH]c2ccccc12)NC(=O)[C@@H]1CCCN1C(=O)[C@H](Cc1c[nH]c2ccccc12)NC(=O)[C@H](Cc1c[nH]cn1)NC(=O)[C@H](CCCCN)NC(=O)[C@@H](NC(=O)[C@H](CC(N)=O)NC(=O)[C@H](CCCC)NC(=O)[C@H](Cc1ccccc1)NC(=O)[C@H](CO)NC(=O)[C@H](CCCNC(=N)N)NC(=O)[C@@H](NC(=O)[C@H](CC(N)=O)NC(=O)[C@H](Cc1ccc(O)cc1)NC(=O)[C@H](CCC(N)=O)NC(=O)[C@@H](NC(=O)[C@@H](NC(=O)[C@H](Cc1ccccc1)NC(=O)[C@@H](NC(=O)[C@H](C)N)[C@@H](C)CC)[C@@H](C)O)[C@@H](C)CC)[C@@H](C)CC)C(C)C)C(=O)N[C@@H](CCCCN)C(N)=O [HC179] (H-AIFTIQYNIRSF[Nle]NVKHWPW[Nle]K-NH2; N-terminus assumed)
IC50 [4, 12]: 400 nM | IC50 [6]: 8300 nM | 4 (recalcification), result in words ([7]; result in words): No activity

RVFDKEGNGTVMGAELRHVL [ELC138-157]
inhibition of myosin-supported prothrombin activation [1]: inhibited | inhibition of prothrombin activation in the absence of myosin [2]: inhibited

B1: Peptide HC796-835 (human skeletal muscle myosin heavy chain MYH2 residues 796-835) (peptide)
peptide: ARCRGFLARVEYQRMVERREAIFCIQYNIRSFMNVKHWPW-NH2
modifications: cysteine pairing not given here
notes: Synthetic 40-mer; also called HC061
IC50, inhibition of myosin-supported prothrombin activation by purified factor Xa, factor Va and Ca++ ions (Human factor Xa [9]): 1200 nM | IC50, Assay 1A (+myosin): prothrombin activation by factor Xa/factor Va/myosin in purified system (Human factor Xa [10]): 1300 nM
